Assay results reported in patent US9029531B2 (Agios Pharmaceuticals, Inc., priority 2012, dated 2015).

Target: T1, glutaminase (GAC) (Homo sapiens, UniProt O94925)
T1 sequence (O94925 55-598 isoform O94925-3 limits assumed): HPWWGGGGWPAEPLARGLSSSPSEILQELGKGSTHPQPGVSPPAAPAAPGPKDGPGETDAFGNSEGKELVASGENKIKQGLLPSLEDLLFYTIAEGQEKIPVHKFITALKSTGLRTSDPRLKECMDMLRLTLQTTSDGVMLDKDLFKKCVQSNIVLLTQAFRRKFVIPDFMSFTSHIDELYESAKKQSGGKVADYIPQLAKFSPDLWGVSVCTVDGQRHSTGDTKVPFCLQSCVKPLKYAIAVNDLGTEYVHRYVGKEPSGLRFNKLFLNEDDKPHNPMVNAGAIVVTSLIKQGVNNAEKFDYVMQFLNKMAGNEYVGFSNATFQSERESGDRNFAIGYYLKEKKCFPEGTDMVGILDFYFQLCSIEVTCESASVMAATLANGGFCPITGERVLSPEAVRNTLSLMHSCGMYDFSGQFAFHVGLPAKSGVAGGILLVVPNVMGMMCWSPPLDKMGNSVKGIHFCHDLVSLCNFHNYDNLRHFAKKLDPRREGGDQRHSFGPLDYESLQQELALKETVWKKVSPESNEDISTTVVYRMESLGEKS
Test: Glutaminase coupled endpoint enzymatic assay (Example A)
Format: biochemical
Details: inhibition of glutaminase; assay of Example A or Example B
Summary of the method: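 Endpoint coupled assay: glutamate formed by GAC drives GDH NADH production, recycled by diaphorase reducing resazurin to fluorescent resorufin (Ex544/Em590) after SDS stop. Buffer pH 8.5 with phosphate; glutamine at Km; enzyme preincubated with compound 60 min at room temperature.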

SMILES	IC50
CN(C)c1cccc(CC(=O)Nc2nnc([C@H]3CC[C@H](c4nnc(NC(=O)Cc5cccc(N(C)C)n5)s4)C3)s2)n1 [Compound 289, N,N′-(5,5′-((1S,3S)-cyclopentane-1,3-diyl)bis(1,3,4-thiadiazole-5,2-diyl))bis(2-(6-(dimethylamino)pyridin-2-yl)acetamide)]	100 to 500 nM
O=C(Cc1cccnc1)Nc1nnc(C2CCCCC(c3nnc(NC(=O)Cc4cccnc4)s3)C2)s1 (stereo not drawn) [Compound 126]	100 to 500 nM
CC(C)C(=O)Nc1nnc([C@@H]2CCC[C@@H](c3nnc(NC(=O)C(C)C)s3)C2)s1 [Compound 38]	100 to 500 nM
CNc1nc(CC(=O)Nc2nnc([C@H]3CCC[C@H](c4nnc(NC(=O)Cc5csc(NC)n5)s4)C3)s2)cs1 [Compound 275, N,N′-(5,5′-((1S,3S)-cyclohexane-1,3-diyl)bis(1,3,4-thiadiazole-5,2-diyl))bis(2-(2-(methylamino)thiazol-4-yl)acetamide)]	< 100 nM
CC(=O)Nc1nnc([C@H]2CCC[C@H](c3nnc(NC(=O)Cc4cccc(N5CC(F)(F)C5)n4)s3)C2)s1 [Compound 281, N-(5-((1S,3S)-3-(5-acetamido-1,3,4-thiadiazol-2-yl)cyclohexyl)-1,3,4-thiadiazol-2-yl)-2-(6-(3,3-difluoroazetidin-1-yl)pyridin-2-yl)acetamide]	< 100 nM
COc1ccccc1CC(=O)Nc1nnc(C2CCC(c3nnc(NC(=O)Cc4ccccc4OC)s3)C2)s1 (stereo not drawn) [Compound 67]	100 to 500 nM
O=C(Cc1cc(N2CC(O)C2)ccn1)Nc1nnc([C@H]2CCC[C@H](c3nnc(NC(=O)Cc4cc(N5CC(O)C5)ccn4)s3)C2)s1 [Compound 255, N,N′-(5,5′-((1S,3S)-cyclohexane-1,3-diyl)bis(1,3,4-thiadiazole-5,2-diyl))bis(2-(4-(3-hydroxyazetidin-1-yl)pyridin-2-yl)acetamide)]	100 to 500 nM
NC(=O)c1ccc(CC(=O)Nc2nnc([C@H]3CCC[C@H](c4nnc(NC(=O)Cc5ccc(C(N)=O)cn5)s4)C3)s2)nc1 [Compound 242]	< 100 nM
CCN(CC)c1ccc(CC(=O)Nc2nnc([C@H]3CCC[C@H](c4nnc(NC(=O)Cc5ccc(N(CC)CC)cc5)s4)C3)s2)cc1 [Compound 237, N,N′-(5,5′-((1S,3S)-cyclohexane-1,3-diyl)bis(1,3,4-thiadiazole-5,2-diyl))bis(2-(4-(diethylamino)phenyl)acetamide)]	500 to 1000 nM
O=C(Cc1ccc(N2CC(F)(F)C2)nc1)Nc1nnc([C@H]2CCC[C@H](c3nnc(NC(=O)Cc4ccc(N5CC(F)(F)C5)nc4)s3)C2)s1 [Compound 271, N,N′-(5,5′-((1S,3S)-cyclohexane-1,3-diyl)bis(1,3,4-thiadiazole-5,2-diyl))bis(2-(6-(3,3-difluoroazetidin-1-yl)pyridin-3-yl)acetamide)]	< 100 nM
CS(=O)(=O)Nc1ccc(CC(=O)Nc2nnc([C@H]3CCC[C@H](c4nnc(NC(=O)Cc5ccc(NS(C)(=O)=O)cc5)s4)C3)s2)cc1 [Compound 238, N,N′-(5,5′-((1S,3S)-cyclohexane-1,3-diyl)bis(1,3,4-thiadiazole-5,2-diyl))bis(2-(4-(methylsulfonamido)phenyl)acetamide)]	< 100 nM
O=C(Cc1cccc(N2CCC2)c1)Nc1nnc([C@H]2CCC[C@H](c3nnc(NC(=O)Cc4cccc(N5CCC5)c4)s3)C2)s1 [Compound 257, N,N′-(5,5′-((1S,3S)-cyclohexane-1,3-diyl)bis(1,3,4-thiadiazole-5,2-diyl))bis(2-(3-(azetidin-1-yl)phenyl)acetamide)]	< 100 nM
CSCC(=O)Nc1nnc([C@H]2CCC[C@H](c3nnc(NC(=O)CSC)s3)C2)s1 [Compound 60, N,N′-(5,5′-((1S,3S)-cyclohexane-1,3-diyl)bis(1,3,4-thiadiazole-5,2-diyl))bis(2-(methylthio)acetamide)]	500 to 1000 nM
O=C(Cc1cccc(N2CCC2)n1)Nc1nnc([C@H]2CCC[C@H](c3nnc(NC(=O)Cc4cccc(N5CCC5)n4)s3)C2)s1 [Compound 267, N,N′-(5,5′-((1S,3S)-cyclohexane-1,3-diyl)bis(1,3,4-thiadiazole-5,2-diyl))bis(2-(6-(azetidin-1-yl)pyridin-2-yl)acetamide)]	100 to 500 nM
COc1cccc(CC(=O)Nc2nnc([C@@H]3CC[C@@H](c4nnc(NC(=O)Cc5cccc(OC)c5)s4)C3)s2)c1 [Compound 108]	< 100 nM
COc1cc(CC(=O)Nc2nnc([C@H]3CCC[C@H](c4nnc(NC(=O)Cc5ccnc(OC)c5)s4)C3)s2)ccn1 [Compound 224, 2-(2-methoxypyridin-4-yl)-N-[5-[(1S,3S)-3-[5-[[2-(2-methoxypyridin-4-yl)acetyl]amino]-1,3,4-thiadiazol-2-yl]cyclohexyl]-1,3,4-thiadiazol-2-yl]acetamide]	< 100 nM
NCc1ccc(CC(=O)Nc2nnc([C@H]3CCC[C@H](c4nnc(NC(=O)Cc5ccc(CN)cc5)s4)C3)s2)cc1 [Compound 246, N,N′-(5,5′-((1S,3S)-cyclohexane-1,3-diyl)bis(1,3,4-thiadiazole-5,2-diyl))bis(2-(4-(aminomethyl)phenyl)acetamide)]	< 100 nM
Cn1cc(CC(=O)Nc2nnc([C@H]3CCC[C@H](c4nnc(NC(=O)Cc5cn(C)c6ccccc56)s4)C3)s2)c2ccccc21 [Compound 16, N,N′-(5,5′-((1S,3S)-cyclohexane-1,3-diyl)bis(1,3,4-thiadiazole-5,2-diyl))bis(2-(1-methyl-1H-indol-3-yl)acetamide)]	100 to 500 nM
O=C(Cc1cccnc1)Nc1nnc(C2CCC(c3nnc(NC(=O)Cc4cccnc4)s3)C2)s1 (stereo not drawn) [Compound 103]	100 to 500 nM
N#Cc1cccc(CC(=O)Nc2nnc(C3CCC(c4nnc(NC(=O)Cc5cccc(C#N)c5)s4)C3)s2)c1 (stereo not drawn) [Compound 97]	100 to 500 nM
COc1ccccc1CC(=O)Nc1nnc(C2CCCCC(c3nnc(NC(=O)Cc4ccccc4OC)s3)C2)s1 (stereo not drawn) [Compound 123]	1000 to 2000 nM
O=C(Cc1cc(N2CC(F)(F)C2)ccn1)Nc1nnc([C@H]2CCC[C@H](c3nnc(NC(=O)Cc4cc(N5CC(F)(F)C5)ccn4)s3)C2)s1 [Compound 258, N,N′-(5,5′-((1S,3S)-cyclohexane-1,3-diyl)bis(1,3,4-thiadiazole-5,2-diyl))bis(2-(4-(3,3-difluoroazetidin-1-yl)pyridin-2-yl)acetamide)]	100 to 500 nM
N#Cc1cccc(CC(=O)Nc2nnc([C@H]3CCC[C@H](c4nnc(NC(=O)Cc5cccc(C#N)n5)s4)C3)s2)n1 [Compound 229, N,N′-(5,5′-((1S,3S)-cyclohexane-1,3-diyl)bis(1,3,4-thiadiazole-5,2-diyl))bis(2-(6-cyanopyridin-2-yl)acetamide)]	< 100 nM
COc1ccc(CC(=O)Nc2nnc([C@H]3CCC[C@H](c4nnc(NC(=O)Cc5ccc(OC)cn5)s4)C3)s2)nc1 [Compound 225, N,N′-(5,5′-((1S,3S)-cyclohexane-1,3-diyl)bis(1,3,4-thiadiazole-5,2-diyl))bis(2-(5-methoxypyridin-2-yl)acetamide)]	< 100 nM
CN(C)c1nc(CC(=O)Nc2nnc([C@H]3CCC[C@H](c4nnc(NC(=O)Cc5csc(N(C)C)n5)s4)C3)s2)cs1 [Compound 278, N,N′-(5,5′-((1S,3S)-cyclohexane-1,3-diyl)bis(1,3,4-thiadiazole-5,2-diyl))bis(2-(2-(dimethylamino)thiazol-4-yl)acetamide)]	100 to 500 nM
O=C(Cc1c[nH]c2ccccc12)Nc1nnc([C@@H]2CCC[C@H](c3nnc(NC(=O)Cc4c[nH]c5ccccc45)s3)C2)s1 [Compound 23, N,N′-(5,5′-((1S,3R)-cyclohexane-1,3-diyl)bis(1,3,4-thiadiazole-5,2-diyl))bis(2-(1H-indol-3-yl)acetamide)]	100 to 500 nM
O=C(Cc1ccccn1)Nc1nnc([C@@H]2CC[C@@H](c3nnc(NC(=O)Cc4ccccn4)s3)C2)s1 [Compound 33]	< 100 nM
O=C(Cc1ccccc1)Nc1nnc([C@@H]2CC[C@H](c3nnc(NC(=O)Cc4ccccc4)s3)C2)s1 [Compound 18, N,N′-(5,5′-((1R,3S)-cyclopentane-1,3-diyl)bis(1,3,4-thiadiazole-5,2-diyl))bis(2-phenylacetamide)]	1000 to 2000 nM
O=C(Cc1cccc(N2CC(F)(F)C2)n1)Nc1nnc([C@H]2CCC[C@H](c3nnc(NC(=O)C4CC4)s3)C2)s1 [Compound 283]	100 to 500 nM
O=C(Cc1ccccc1)Nc1nnc(C[C@H]2C[C@@H]2Cc2nnc(NC(=O)Cc3ccccc3)s2)s1 (racemic) [Compound 1, N,N′-(5,5′-(trans-cyclopropane-1,2-diylbis(methylene))bis(1,3,4-thiadiazole-5,2-diyl))bis(2-phenylacetamide)]	100 to 500 nM
